Laboratory results taken from patent US20260226036A1, “THIOUREA ANTIO[…] NEURO[…]” (priority 2023, published 2026).

Columns and labels:
[1] = test system: SW mice; test: Cocaine-conditioned locomotion, expression test; assay type: in vivo, mouse; settings: Paired mice, cocaine 15 mg/kg 24 h earlier; 10 mg/kg prior to testing
Protocol: The goal of this pilot study was to determine if the novel small molecule was effective in preventing cocaine-conditioned motor activity of SW mice. […] Cocaine results in enhanced locomotor activity in mice. Mice that were previously injected with 15 mg/kg cocaine, either in their home cages (Unpaired) or in the novel test environment (Paired), were tested 24 h later.

[2] = test system: mouse model of CPP; test: Mouse model of CPP; assay type: in vivo
[3] = test system: IL-1β cytokine; test: IL-1β cytokine ELISA of SHSY-5Y supernatants; assay type: cell-based, human; settings: cocaine 1.5 mM or METH 3.5 mM alone; 24 h
Protocol: Supernatants were collected and the IL-1β cytokine concentration was assessed using ELISA kit and following manufacturer instruction (RayBiotech). […] N=3, p<0.05; p<0.01, One-way ANOVA, GraphPad Prism.

[4] = Neuroprotection MTT assay in SHSY5Y cells; assay type: cell-based, human; settings: insult agent alone, HT22 or SHSY5Y cells, not told apart, read-out: cell proliferation (viable cells, MTT); for viability: 24 h
Text: MTT assay was used for measuring viable cells at absorbance of 490 nm. […] (FIGS. 5C-5D).

[5] = test system: methionine synthase (MS); test: Intracellular methionine synthase ELISA of SH-SY5Y cell lysate; assay type: cell-based, human; settings: cocaine 1.5 mM alone; 24 hours; FIG. 6B
Protocol: Cell lysates were collected and quantified with Pierce™ BCA Protein Assay. Level of intracellular methionine synthase (MS) were assessed using ELISA of the cell lysate.

[6] = test system: catalase (CAT); test: Catalase ELISA in SH-SY5Y cells; assay type: cell-based, human; settings: cocaine 1.5 mM alone; 24 hours
Protocol: Cell lysates were collected and quantified with Pierce™ BCA Protein Assay. Level of intracellular SOD, catalase, glutathione peroxidase and total antioxidant concentration were assessed using ELISA kits.

SMILES: CNC(=S)NC [DMTU, dimethyl thiourea]
- expression of increased (cocaine-conditioned) locomotor activity [1]: effective
- bioactivity in the mouse model of CPP ([2]; 5 mg/kg): potent bioactivity
- bioactivity in the mouse model of CPP ([2]; 10 mg/kg): potent bioactivity

SMILES: CN[C@@H](C)Cc1ccccc1 [METH, methamphetamine]
- IL-1β [3]: trend in increase
- viability [4]: ~50%

SMILES: CC(C)(C)OO [TBHP, t-butyl hydrogen peroxide]
- viability at 24 h [4]: ~50%

SMILES: COC(=O)[C@H]1[C@@H](OC(=O)c2ccccc2)C[C@@H]2CC[C@H]1N2C [cocaine]
- effect on MS [5]: no significant effect
- CAT activity [6]: no significant effect
- viability [4]: ~50%
